From US20210214285A1, “EMULSION FOR TREATING UREA-CONTAINING FERTILIZERS” (EUROCHEM AGRO GMBH, priority 2018, published 2021)
≈ marks a conversion by molar mass, not a printed value.

Key:
[1] = Comparative experiment: urea treated with DMPP/NBPT emulsion, degradation on storage (HPLC); conditions: for amount broken down: after a period of 7 days
[2] = Storage stability test of treated urea fertilizers (NBPT and DMPSA content over time); type: physicochemical; conditions: urea coated with DMPSA/NBPT emulsion (invention, FIG. 2) versus sequential application (comparative, FIG. 1); stored 90 days under standard conditions in a climate-controlled cabinet
Experimental: 20 kg of granulated urea was initially charged in a mixer. 35 g of the NBPT formulation and 79 g of DMPSA formulation were introduced into a spray bottle and shaken until a homogeneous emulsion had formed. The formulation emulsion was immediately sprayed onto the urea, with intermittent shaking of the spray bottle in order to prevent settling of the emulsion. The mixer was operated for a further 10 minutes until a homogeneous product was obtained.
In a comparative experiment, identical amounts of DMPSA and NBPT were applied to urea. DMPSA formulation was applied first to the urea by the method described above, and the NBPT formulation was applied after drying.
Storage stability tests were conducted for both the urea fertilizers treated. They were stored for a period of 90 days under standard conditions in a climate-controlled cabinet. The NBPT and DMPSA content was determined at time intervals.

[3] = at 20° C.; cited from earlier work

SMILES	degradation characteristics [1]	amount broken down [1]	decrease in NBPT and DMPSA content over time [2]	water solubility [3]
CCCCNP(N)(N)=S [NBPT, N-(n-butyl)-thiophosphoric acid triamide]	rapid degradation characteristics	100%	significantly smaller	
CCCCCC(CO)CCC (stereo not shown) [2-Propylheptan-1-ol]				58 µg/mL (≈ 366 µM)
Cc1cn(C(CC(=O)O)C(=O)O)nc1C (stereo not shown) [DMPSA, 2-(N-3,4-dimethylpyrazole)succinic acid]			significantly smaller	
Cc1c[nH]nc1C.O=P(O)(O)O [DMPP, 3,4-dimethylpyrazole phosphate, reference compound]	rapid degradation characteristics	about 50%		
